Assay results reported in patent publication US20250134809A1, “A PHYTOACTIVE ENCAPSULATED FORMULATION FOR NEURODEGENERATIVE DISEASES” (Gidaa Life Sciences Pvt. Ltd., priority 2022, published 2025).

Key:
Assay type in all cases: in vivo, rat
[1] = test system: Alzheimer's Disease model (Aluminium Chloride induced), Wistar male rats; experiment: Passive avoidance test in AlCl3-induced Alzheimer's Disease model; settings: G3 (Donepezil orally)
Description: (§1) This compound PHY-001 (Named as MAG XXI in Animal study by CEFTE) has also been subjected to in-vivo animal study at the animal study facility attached to SRMC (Sri Ramachandra Medical College) Hospital, Chennai. In this study, the therapeutic efficacy of this compound was evaluated against Alzheimer's Disease model, by inducing Alzheimer's like pathology by intra peritoneal administration of Aluminium Chloride (Established animal model for studying Alzheimer's disease and efficacy evaluation of a therapeutic intervention).
(§2) Based on the pilot study observations, a main study was conducted. Totally 30 Wistar male rats were used for the study. Animals were formed into five groups, Group 1-rats served as a control group, animals in group 2 to 5 were injected with AlCl3 intra-peritoneally once daily for four weeks.
Significant alteration in dark compartment movement at all weeks is noticed in G2 group when compared to G1 which elucidate the learning memory defect.

[2] = test system: Alzheimer's Disease model (Aluminium Chloride induced), Wistar male rats; experiment: Morris water maze in AlCl3-induced Alzheimer's Disease model; settings: G3 (Donepezil orally)
Description: as §1, §2
The results of number of times crossed centre at Morris water maze and escape latency which is the […] the animal could find the platform and escape (in 3 minutes), are presented in table 1 & table 2.

[3] = test system: Alzheimer's Disease model (Aluminium Chloride induced), Wistar male rats; experiment: Elevated plus maze in AlCl3-induced Alzheimer's Disease model; settings: G3 (Donepezil orally); for Elevated plus maze: No. of DF (defacation) / Elevated plus maze: No. of UP (urine pool): Latency period 3 minutes
Description: as §1, §2

COc1cc2c(cc1OC)C(=O)C(CC1CCN(Cc3ccccc3)CC1)C2 (stereo not shown) [Donepezil]
dark compartment movement when compared to G2 [1]: significant reversal
Passive avoidance: latency to enter dark chamber (mean values) ([1]; WK 1): 31.83 s
Passive avoidance: latency to enter dark chamber (mean values) ([1]; WK 2): 42 s
Passive avoidance: latency to enter dark chamber (mean values) ([1]; WK 3): 45.33 s
Passive avoidance: latency to enter dark chamber (mean values) ([1]; WK 4): 47 s
times crossed centre and escape latency when compared to G2 [2]: significant elevation
Escape latency (in 3 minutes): No. of times find platform and escape ([2]; WK 1): 3.33
Morris water maze: No. of times crossed center in 1 minute (mean values) ([2]; WK 1): 2.5
Escape latency (in 3 minutes): No. of times find platform and escape ([2]; WK 2): 2.67
Morris water maze: No. of times crossed center in 1 minute (mean values) ([2]; WK 2): 2.67
Escape latency (in 3 minutes): No. of times find platform and escape ([2]; WK 3): 3.33
Morris water maze: No. of times crossed center in 1 minute (mean values) ([2]; WK 3): 2.83
Escape latency (in 3 minutes): No. of times find platform and escape ([2]; WK 4): 3.5
Morris water maze: No. of times crossed center in 1 minute (mean values) ([2]; WK 4): 3.33
Elevated plus maze: No. of DF (defacation) ([3]; WK 1): 1
Elevated plus maze: No. of UP (urine pool) ([3]; WK 1): 0.5
Elevated plus maze: No. of DF (defacation) ([3]; WK2): 0.5
Elevated plus maze: No. of UP (urine pool) ([3]; WK2): 0.17
Elevated plus maze: No. of DF (defacation) ([3]; WK 3): 1.17
Elevated plus maze: No. of UP (urine pool) ([3]; WK 3): 1.33
Elevated plus maze: No. of DF (defacation) ([3]; WK 4): 0.83
Elevated plus maze: No. of UP (urine pool) ([3]; WK 4): 1.17
Elevated plus maze: No. of entries in Closed arm ([3]; WK 1): 3.5
Elevated plus maze: No. of entries in Open arm ([3]; WK 1): 0.33
Elevated plus maze: No. of entries in Closed arm ([3]; WK 2): 4.17
Elevated plus maze: No. of entries in Open arm ([3]; WK 2): 0.33
Elevated plus maze: No. of entries in Closed arm ([3]; WK 3): 2.5
Elevated plus maze: No. of entries in Open arm ([3]; WK 3): 0
Elevated plus maze: No. of entries in Closed arm ([3]; WK 4): 2.67
Elevated plus maze: No. of entries in Open arm ([3]; WK 4): 1.67
number of entries in open arm and closed arm when compared to G2 ([3]; week 4): significant elevation
